Results from US7883730B2, “Rumen protected lysine” (Zinpro Corporation, priority 2007, dated 2011).

Test system: Lactating Holstein Dairy Cows
Assay: Feeding evaluation: lactation responses to N-Benzylidene-L-Lysine
Format: in vivo
Excerpt: Evaluation of Feeding N-Benzylidene-L-Lysine Using Lactating Holstein Dairy Cows
All cows received the same base diet. Cows were assigned to one of two treatments: (1) control, (2) control+N-Benzylidene-L-Lysine (TrTA). N-Benzylidene-L-Lysine was supplemented at a rate to supply 40 g of Lys when cows consumed 53.0 lb dry matter/d. The control diet was formulated to be deficient of lysine. “P” refers to the probability value (p-value).

[1] = control diet deficient of lysine plus 40 g Lys from N-Benzylidene-L-Lysine, 14 days

**Q.** What does the source list for `NCCCC[C@H](N=Cc1ccccc1)C(=O)O` [Trt A, N-Benzylidene-L-Lysine]?
**A.** ECM [1]: 81.3 lbs/d; FCM [1]: 81.2 lbs/d; Milk [1]: 77.3 lbs/d; ECM/Feed (control diet plus 40 g Lys from N-Benzylidene-L-Lysine, 14 days): 1.53; Fat, % (milk fat content, control diet plus 40 g Lys from N-Benzylidene-L-Lysine, 14 days): 3.81%; Fat, lbs/d (milk fat yield, control diet plus 40 g Lys from N-Benzylidene-L-Lysine, 14 days): 2.94 lbs/d; Protein, % (milk protein content, control diet plus 40 g Lys from N-Benzylidene-L-Lysine, 14 days): 3.14%; Protein, lbs/d (milk protein yield, control diet plus 40 g Lys from N-Benzylidene-L-Lysine, 14 days): 2.41 lbs/d; Lactation response versus control (conclusion in words) (versus lysine-deficient control diet, from Table 1 data): produced more milk, more protein and more fat
